Results taken from the NIST ThermoML archive (doi:10.1016/j.fluid.2019.06.022).
Several values for one entry are separate records, joined by “and”; a condition that tells them apart may be missing. Identical values can stand only once. Numbers after ± are expanded uncertainties.

Experiment: xn = mol fraction of the nth substance listed
Conditions: Liquid; for mass density: Bellows volumetry; for viscosity: Falling or rolling sphere viscometry

C=C [ethene] + Cc1ccccc1
Conditions | mass density, x1 = 0.1131 [kg/m3] | mass density, x1 = 0.3241 | viscosity, x1 = 0.1131 | viscosity, x1 = 0.3241
295.4 K, 2700 kPa | 815.8 ± 20 | – | 0.474 ± 0.019 mPa·s | –
295.4 K, 2800 kPa | 815.8 ± 20 | – | 0.474 ± 0.019 mPa·s | –
295.4 K, 11400 kPa | 823.1 ± 20 | – | 0.508 ± 0.021 mPa·s | –
295.4 K, 11500 kPa | 823.1 ± 20 | – | 0.509 ± 0.021 mPa·s | –
295.4 K, 20400 kPa | 829.9 ± 20 | – | 0.551 ± 0.022 mPa·s | –
295.4 K, 20500 kPa | 829.9 ± 20 | – | 0.548 ± 0.022 mPa·s | –
295.4 K, 36200 kPa | 840.8 ± 20 | – | 0.614 ± 0.025 mPa·s and 0.615 ± 0.025 mPa·s | –
298 K, 3400 kPa | – | 754.7 ± 18 kg/m3 | – | 0.309 ± 0.013 mPa·s
298 K, 3700 kPa | – | 754.7 ± 18 kg/m3 | – | 0.312 ± 0.013 mPa·s
298 K, 10000 kPa | – | 767.2 ± 18 kg/m3 | – | 0.328 ± 0.013 mPa·s and 0.332 ± 0.014 mPa·s
298 K, 22000 kPa | – | 778.9 ± 19 kg/m3 | – | 0.36 ± 0.015 mPa·s and 0.364 ± 0.015 mPa·s
298 K, 22300 kPa | – | 778.9 ± 19 kg/m3 | – | 0.362 ± 0.015 mPa·s
298 K, 22400 kPa | – | 778.9 ± 19 kg/m3 | – | 0.366 ± 0.015 mPa·s
298 K, 35100 kPa | – | 789.8 ± 19 kg/m3 | – | 0.402 ± 0.016 mPa·s and 0.398 ± 0.016 mPa·s
298 K, 48000 kPa | – | 799.7 ± 19 kg/m3 | – | 0.434 ± 0.018 mPa·s and 0.439 ± 0.018 mPa·s
298 K, 68400 kPa | – | 813.3 ± 20 kg/m3 | – | 0.496 ± 0.022 mPa·s
298 K, 68500 kPa | – | 813.3 ± 20 kg/m3 | – | 0.5 ± 0.022 mPa·s
322.1 K, 4200 kPa | 792.1 ± 19 | – | 0.36 ± 0.015 mPa·s and 0.361 ± 0.015 mPa·s | –
322.1 K, 10200 kPa | 798.1 ± 19 | – | 0.376 ± 0.015 mPa·s and 0.377 ± 0.015 mPa·s | –
322.1 K, 21200 kPa | 808 ± 19 | – | 0.415 ± 0.017 mPa·s | –
322.1 K, 34400 kPa | 819.1 ± 20 | – | 0.442 ± 0.018 mPa·s | –
322.1 K, 34500 kPa | 819.1 ± 20 | – | 0.452 ± 0.018 mPa·s | –
322.1 K, 48100 kPa | 828.1 ± 20 | – | 0.495 ± 0.02 mPa·s | –
322.1 K, 48200 kPa | 828.5 ± 20 | – | 0.498 ± 0.02 mPa·s and 0.497 ± 0.02 mPa·s | –
322.1 K, 65900 kPa | 840 ± 20 | – | 0.556 ± 0.023 mPa·s and 0.55 ± 0.022 mPa·s | –
322.2 K, 7200 kPa | – | 739.3 ± 18 kg/m3 | – | 0.25 ± 0.01 mPa·s and 0.253 ± 0.01 mPa·s
322.2 K, 14700 kPa | – | 748.2 ± 18 kg/m3 | – | 0.268 ± 0.011 mPa·s and 0.27 ± 0.011 mPa·s
322.2 K, 21700 kPa | – | 756.1 ± 18 kg/m3 | – | 0.288 ± 0.012 mPa·s
322.2 K, 21800 kPa | – | 756.1 ± 18 kg/m3 | – | 0.283 ± 0.012 mPa·s
322.2 K, 34300 kPa | – | 768.4 ± 18 kg/m3 | – | 0.313 ± 0.013 mPa·s
322.2 K, 34500 kPa | – | 768.4 ± 18 kg/m3 | – | 0.317 ± 0.013 mPa·s
322.2 K, 48300 kPa | – | 780.5 ± 19 kg/m3 | – | 0.344 ± 0.014 mPa·s and 0.348 ± 0.014 mPa·s
322.2 K, 68800 kPa | – | 795.9 ± 19 kg/m3 and 795.8 ± 19 kg/m3 | – | 0.391 ± 0.016 mPa·s and 0.397 ± 0.016 mPa·s
368.1 K, 6800 kPa | – | 692.1 ± 17 kg/m3 | – | 0.171 ± 0.007 mPa·s and 0.169 ± 0.007 mPa·s
368.1 K, 13800 kPa | – | 704 ± 17 kg/m3 | – | 0.182 ± 0.007 mPa·s
368.1 K, 13900 kPa | – | 704 ± 17 kg/m3 | – | 0.185 ± 0.008 mPa·s
368.1 K, 26500 kPa | – | 721.7 ± 17 kg/m3 and 720.9 ± 17 kg/m3 | – | 0.205 ± 0.009 mPa·s and 0.208 ± 0.008 mPa·s
368.1 K, 26600 kPa | – | 720.8 ± 17 kg/m3 and 721.6 ± 17 kg/m3 | – | 0.207 ± 0.009 mPa·s and 0.208 ± 0.009 mPa·s
368.1 K, 41800 kPa | – | 736.7 ± 18 kg/m3 | – | 0.234 ± 0.01 mPa·s
368.1 K, 42100 kPa | – | 736.7 ± 18 kg/m3 | – | 0.235 ± 0.01 mPa·s
368.1 K, 54100 kPa | – | 749.3 ± 18 kg/m3 | – | 0.254 ± 0.01 mPa·s and 0.255 ± 0.01 mPa·s
368.1 K, 54300 kPa | – | 749.3 ± 18 kg/m3 | – | 0.253 ± 0.01 mPa·s and 0.256 ± 0.01 mPa·s
368.1 K, 68200 kPa | – | 761.9 ± 18 kg/m3 | – | 0.278 ± 0.011 mPa·s and 0.279 ± 0.011 mPa·s
369.3 K, 4200 kPa | 748.1 ± 18 | – | 0.235 ± 0.01 mPa·s | –
369.3 K, 4300 kPa | 748.1 ± 18 | – | 0.236 ± 0.01 mPa·s | –
369.3 K, 10200 kPa | 755.4 ± 18 | – | 0.251 ± 0.011 mPa·s | –
369.3 K, 10300 kPa | 755.4 ± 18 | – | 0.25 ± 0.011 mPa·s | –
369.3 K, 20700 kPa | 767.5 ± 18 | – | 0.273 ± 0.011 mPa·s | –
369.3 K, 20800 kPa | 767.5 ± 18 | – | 0.273 ± 0.011 mPa·s | –
369.3 K, 34800 kPa | 781.7 ± 19 | – | 0.305 ± 0.012 mPa·s and 0.304 ± 0.012 mPa·s | –
369.3 K, 48700 kPa | 794.3 ± 19 | – | 0.335 ± 0.014 mPa·s | –
369.3 K, 48800 kPa | 794.3 ± 19 | – | 0.335 ± 0.014 mPa·s | –
369.3 K, 68400 kPa | 809.5 ± 19 | – | 0.382 ± 0.016 mPa·s | –
369.3 K, 68500 kPa | 809.5 ± 19 | – | 0.379 ± 0.015 mPa·s | –
435.9 K, 15500 kPa | – | 638 ± 15 kg/m3 | – | 0.126 ± 0.005 mPa·s
435.9 K, 15900 kPa | – | 637.9 ± 15 kg/m3 | – | 0.126 ± 0.005 mPa·s
435.9 K, 27600 kPa | – | 662 ± 16 kg/m3 | – | 0.146 ± 0.006 mPa·s
435.9 K, 27700 kPa | – | 662 ± 16 kg/m3 | – | 0.144 ± 0.006 mPa·s
435.9 K, 41800 kPa | – | 685.4 ± 16 kg/m3 | – | 0.165 ± 0.007 mPa·s
435.9 K, 42000 kPa | – | 685.3 ± 16 kg/m3 and 685.5 ± 16 kg/m3 | – | 0.168 ± 0.007 mPa·s and 0.164 ± 0.007 mPa·s
435.9 K, 42200 kPa | – | 685.4 ± 16 kg/m3 | – | 0.166 ± 0.007 mPa·s
435.9 K, 56000 kPa | – | 703.4 ± 17 kg/m3 | – | 0.192 ± 0.008 mPa·s
435.9 K, 56200 kPa | – | 703.4 ± 17 kg/m3 | – | 0.188 ± 0.008 mPa·s
435.9 K, 68400 kPa | – | 716.8 ± 17 kg/m3 | – | 0.202 ± 0.008 mPa·s
435.9 K, 68500 kPa | – | 716.8 ± 17 kg/m3 | – | 0.199 ± 0.008 mPa·s
437 K, 3900 kPa | 678.2 ± 16 | – | 0.155 ± 0.006 mPa·s | –
437 K, 4200 kPa | 678.2 ± 16 | – | 0.153 ± 0.006 mPa·s | –
437 K, 13700 kPa | 699 ± 17 | – | 0.173 ± 0.007 mPa·s | –
437 K, 14100 kPa | 699.1 ± 17 | – | 0.172 ± 0.007 mPa·s | –
437 K, 27600 kPa | 721 ± 17 | – | 0.196 ± 0.008 mPa·s | –
437 K, 27800 kPa | 721 ± 17 | – | 0.197 ± 0.008 mPa·s | –
437 K, 41400 kPa | 738.3 ± 18 | – | 0.22 ± 0.009 mPa·s | –
437 K, 41500 kPa | 738.3 ± 18 | – | 0.22 ± 0.009 mPa·s | –
437 K, 42400 kPa | 740 ± 18 | – | 0.222 ± 0.009 mPa·s | –
437 K, 42700 kPa | 740 ± 18 | – | 0.224 ± 0.009 mPa·s | –
437 K, 54200 kPa | 750.9 ± 18 | – | 0.242 ± 0.01 mPa·s | –
437 K, 54300 kPa | 750.9 ± 18 | – | 0.243 ± 0.01 mPa·s | –
437 K, 67900 kPa | 763.9 ± 18 | – | 0.264 ± 0.011 mPa·s | –
522 K, 23100 kPa | – | 555.7 ± 13 kg/m3 | – | 0.097 ± 0.004 mPa·s
522 K, 23200 kPa | – | 555.5 ± 13 kg/m3 | – | 0.095 ± 0.004 mPa·s
522 K, 29400 kPa | – | 574.4 ± 14 kg/m3 and 574.7 ± 14 kg/m3 and 574.6 ± 14 kg/m3 | – | 0.102 ± 0.004 mPa·s and 0.104 ± 0.004 mPa·s
522 K, 29500 kPa | – | 574.4 ± 14 kg/m3 | – | 0.103 ± 0.004 mPa·s
522 K, 38300 kPa | – | 597 ± 14 kg/m3 [middle of 4 runs] | – | 0.114 ± 0.005 mPa·s [middle of 4 runs]
522 K, 50700 kPa | – | 621.2 ± 15 kg/m3 and 620.9 ± 15 kg/m3 | – | 0.125 ± 0.005 mPa·s and 0.126 ± 0.005 mPa·s
522 K, 50800 kPa | – | 621.2 ± 15 kg/m3 | – | 0.125 ± 0.005 mPa·s
522 K, 50900 kPa | – | 621.2 ± 15 kg/m3 | – | 0.123 ± 0.005 mPa·s
522 K, 68400 kPa | – | 645.9 ± 16 kg/m3 | – | 0.144 ± 0.006 mPa·s
522 K, 68700 kPa | – | 646 ± 16 kg/m3 | – | 0.142 ± 0.006 mPa·s
522.7 K, 9400 kPa | 581.8 ± 14 | – | 0.101 ± 0.004 mPa·s | –
522.7 K, 9800 kPa | 581.8 ± 14 | – | 0.103 ± 0.004 mPa·s | –
522.7 K, 31600 kPa | 643.4 ± 16 | – | 0.137 ± 0.006 mPa·s | –
522.7 K, 32000 kPa | 643.4 ± 16 | – | 0.131 ± 0.005 mPa·s | –
522.7 K, 32200 kPa | 643.5 ± 16 | – | 0.132 ± 0.005 mPa·s | –
522.7 K, 41200 kPa | 659.4 ± 16 | – | 0.15 ± 0.006 mPa·s | –
522.7 K, 41700 kPa | 659.4 ± 16 | – | 0.145 ± 0.006 mPa·s | –
522.7 K, 56200 kPa | 679.5 ± 16 | – | 0.167 ± 0.007 mPa·s | –
522.7 K, 56300 kPa | 679.4 ± 16 | – | 0.162 ± 0.007 mPa·s | –
522.7 K, 67600 kPa | 693.8 ± 17 | – | 0.179 ± 0.007 mPa·s | –
522.7 K, 68100 kPa | 693.8 ± 17 | – | 0.177 ± 0.007 mPa·s | –
